Test results taken from patent US20160166565A1, “TREATMENT OF MULTIPLE SCLEROSIS WITH COMBINATION OF LAQUINIMOD AND FLUPIRTINE” (Teva Pharmaceutical Industries, Ltd., priority 2013, published 2016).
Read-outs that look alike come from different tables or passages of the source.

System: MOG-induced EAE Mice
Test: MOG-induced EAE in mice, laquinimod alone or in combination with flupirtine
Format: in vivo, mice (C57BL/6)
Details: oral gavage qd, Day 1 to 30; for inhibition at 30 mg/kg: Mus musculus, vs vehicle
[1] = 0.5% MC + Flupirtin 30 mg/kg/day

## CCOC(=O)Nc1ccc(NCc2ccc(F)cc2)nc1N [Flupirtin, ethyl {2-amino-6-[(4-fluorobenzyl)amino]pyridin-3-yl}carbamate]
[1]
  Duration: 17.0 days
  GMS value (group mean score): 1.9
  INC (Incidence): 15/15
  MMS value (mean maximal score): 3.1
  MORT (Mortality): 0/15
  Onset: 13.3 days
0.5% MC + Flupirtin 30 mg/kg/day, read-out: INH 1 (percent inhibition according to incidence)
  inhibition at 30 mg/kg: 0%
0.5% MC + Flupirtin 30 mg/kg/day, read-out: INH 2 (percent inhibition according to MMS)
  inhibition at 30 mg/kg: 11.4%
0.5% MC + Flupirtin 30 mg/kg/day, read-out: INH 3 (percent inhibition / activity according to GMS)
  inhibition at 30 mg/kg: 17.4%

## CCN(C(=O)c1c(O)c2c(Cl)cccc2n(C)c1=O)c1ccccc1 [LAQ, 5-chloro-N-ethyl-4-hydroxy-1-methyl-2-oxo-N-phenyl-1,2-dihydroquinoline-3-carboxamide]
LAQ 1 mg/kg/day + 0.5% MC
  Duration: 16.0 days
  GMS value (group mean score): 1.9
  INC (Incidence): 15/15
  MMS value (mean maximal score): 3.4
  MORT (Mortality): 0/15
  Onset: 14.8 days
LAQ 5 mg/kg/day + 0.5% MC
  Duration: 14.7 days
  GMS value (group mean score): 1.6
  INC (Incidence): 14/15
  MMS value (mean maximal score): 2.9
  MORT (Mortality): 0/15
  Onset: 15.0 days
